Results: patent US20100168085A1, “Dopamine and agonists and antagonists thereof for modulation of suppressive activity of CD4+CD25+ regulatory T cells” (YESA RESEARCH AND DEVELOPMENT CO. LTD. at the Weizmann …, priority 2003, published 2010)
Marks after values point to notes of the source that are not given here.

How the values were obtained:
Foxp3 expression in Treg = details: 2 h exposure, analysed after 30 min or 24 h
Description: (§1) (xx) Polymerase chain reaction (PCR). Total RNA was purified with the RNeasy Mini Kit (Qiagen, Germantown, Md.) and transcribed into cDNA using poly dT primers. For PCR the following primers were used: […]

CCR-4 mRNA in Treg = details: 2 h with dopamine
Description: as §1

[1] = test system: BALB/c mice, optic nerve crush injury; details: 0.4 mg/kg immediately after severe optic nerve crush, two weeks later; vehicle 789±23
Description: (§2) (iv) Retrograde labeling of retinal ganglion cells. Mice were anesthetized and placed in a stereotactic device. The skull was exposed and kept dry and clean. The bregma was identified and marked. The designated point of injection was at a depth of 2 mm from the brain surface, 2.92 mm behind the bregma in the anteroposterior axis and 0.5 mm lateral to the midline. A window was drilled in the scalp above the designated coordinates in the right and left hemispheres. The neurotracer dye FluoroGold (5% solution in saline; Fluorochrome, Denver, Colo.) was applied (1 μL, at a rate of 0.5 μL/min in each hemisphere) using a Hamilton syringe, and the skin over the wound was sutured.
(§3) (xxi) Assessment of mouse retinal ganglion cell survival. Mice were given a lethal dose of pentobarbitone (170 mg/kg). Their eyes were enucleated and the retinas were detached and prepared as flattened whole mounts in 4% paraformaldehyde solution. Labeled cells from 4-6 selected fields of identical size (0.7 mm^2) were counted. The selected fields were located at approximately the same distance from the optic disk (0.3 mm) to overcome the variation in RGC density as a function of distance from the optic disk. Fields were counted under the fluorescence microscope (magnification ×800) by observers blinded to the identity of the retinas. The average number of RGCs per field in each retina was calculated.

CTLA-4 on Treg = assay: FACS analysis of CTLA-4 expression; format: cell-based, mouse; details: Treg activated 24 h, 2 h with compound, stained 24 h later
Experimental: (vii) FACS analysis of CTLA-4-expressing CD4^+ T cells. Cells were immunostained according to the manufacturer's instructions, resuspended in 0.4 mL of 1% paraformaldehyde, and analyzed by FACSort (Becton-Dickinson), with 10,000 events scored. […] The cells were scored from a region defined according to physical parameters that indicate the size (forward scatter) and granularity (side scatter) of lymphocytes. CD4^+ lymphocytes were then gated for analysis of CTLA-4 expression.
To gain further insight into the mechanism whereby dopamine affects Treg activity we examined CTLA-4, a molecule characteristic of Treg (Im et al., 2001).

[2] = test system: TGF-β1 transcripts in Treg; details: after dopamine treatment
Description: as §1
Because the suppressive effect of Treg on Teff is partly due to transforming growth factor (TGF)-β1 (Nakamura et al., 2001), we measured whether exposure of Treg to dopamine affects the level of TGF-β1 expression.

[3] = test system: mice, glutamate-induced retinal ganglion cell death; assay: Intravitreal glutamate toxicity, retinal ganglion cell survival; format: in vivo, mouse
Experimental: (iii) Intravitreal glutamate injection. The right eyes of anesthetized mice were punctured with a 27-gauge needle in the upper part of the sclera, and a 10-μL Hamilton syringe with a 30-gauge needle was inserted as far as the vitreal body. A total volume of 1 μl, of L-glutamate (400 nmol) dissolved in saline was injected into the eye.
as §2, §3
Injection of glutamate into the eyes of adult mice causes retinal ganglion cell death that is measurable 1 week after the injection (Mizrahi et al., 2002; Schori et al., 2001a; Katayama et al., 1990). We injected Balb/c mice intraperitoneally (i.p.) with the dopamine, or its specific D1-type agonist SKF-38393 (3.3 mg/kg), or its specific D1-type antagonist SCH-23390 (3 mg/kg), immediately after their exposure to glutamate toxicity. We also injected SCID Balb/c mice with SKF-38393 (3.3 mg/kg) immediately after glutamate intoxication.
Immediately after glutamate intoxication mice were systemically injected with the indicated drugs. Neuronal survival was determined ten days later (see Materials and Methods). The results are expressed by changes (in percentage) in neuronal survival in treated mice relative to untreated mice. Each value represents a mean±SEM of a group of at least 5 animals, and each experiment was performed at least twice, independently. Asterisks (***, P<0.001; **, P<0.01) indicate statistical significance of the presented data from a single experiment using a Student's T-test statistical analysis. (NT—not tested; ns—no statistical significance).

[4] = test system: D5-R transcripts in Treg and Teff; details: 2 h with 10^−5 M
Experimental: as §1
(§4) This was done by assaying the expression of the dopamine type-1 receptors, D1-R and D5-R, in Treg and Teff, in the absence and in the presence of dopamine (incubation of the cells for 2 h with 10^−5 M dopamine).

[5] = test system: D1-R transcripts in Treg and Teff; details: 2 h with 10^−5 M
Experimental: as §1, §4

[6] = test system: IL-2 production by Treg and Teff; details: media conditioned 48 h, without mrIL-2
Experimental: (x) Enzyme-linked immunosorbent assay. Treg or Teff (0.5×10^6 cells/ml) were cultured for 48 h in the presence of anti-CD3 and anti-CD28. After 48 h the cells were centrifuged and their supernatants were collected and sampled. Concentrations of IL-2 in the samples were determined by the use of sandwich enzyme-linked immunosorbent assay (ELISA) kits (R&D Systems, Minneapolis, Minn.). For detection of secreted IL-10 cells were centrifuged every 24 h and replaced with a fresh medium. Supernatants obtained from cells after 24, 48 and 72 h in culture were subjected to ELISA kit (Diaclone Research, Fleming, France). The plates were developed using a 3,3′,5,5′-tetramethyl-benzidine liquid substrate system (Sigma, St. Louis, Mo.). The reaction was stopped by adding 1M H3PO4. Results for each experiment were calculated as the amount of secreted cytokine per 1 ml of sample, after subtraction of the background levels of the medium.
It should be noted that activation of both T cell populations was carried out in the absence of mrIL-2.

[7] = test system: migration of T cells towards SDF-1
Experimental: The migration of T cells across polycarbonate filters (pore size 5 μm, diameter 6.5 mm) towards SDF-1 and MDC (CCL22) was assayed in 24-well Transwell chambers (Costar, Corning, Corning, N.Y.). T lymphocytes (1.67×10^6 cells/mL) were suspended in RPMI/0.1% BSA, and 150 μL of the cell suspension was added to the upper chamber after incubation with or without dopamine (90 min, 37° C.). Chemokines were added to the lower chamber at concentrations of 1 μg/mL SDF-1 (CytoLab, Israel) and 0.25 μg/mL MDC (R&D Systems). The plates were incubated for 90 min at 37° C. in 9.5% CO2. […] The numbers of migrating T cells were measured by flow cytometer acquisition for a fixed time (60 s). To calculate specific migration, the number of cells in each subpopulation in the absence of chemokine was subtracted from the number in the corresponding cell subpopulation that migrated in the presence of chemokines. The number of migrating CD4^+CD25^+ T cells was calculated as a percentage of the total T cell population before migration. For migration of purified population we used a similar protocol.
We also examined the migration of a mixed T cell population towards SDF-1.

[8] = test system: phospho-ERK1/2 in Treg and Teff; assay: ERK1/2 phosphorylation (intracellular FACS staining, Western blot); format: cell-based, mouse
Experimental: (ix) FACS analysis of intracellular labeling of phosphorylated form of ERK. T-cell subpopulations were fixed in 1.5% formaldehyde for 10 min at room temperature, washed, resuspended with vortexing in cold 100% methanol, and incubated for 1 h at 4° C. The cells were then washed with PBS containing 1% bovine serum albumin (BSA) and resuspended in 100 μL of PBS/BSA, and 12.5 μL of anti-phosphoERK1 & 2 (BioSource) was added for 20 min at room temperature. The cells were then washed, resuspended in PBS, and analyzed by FACSCalibur (Becton-Dickinson). As a negative control we incubated the phospho-peptide for 20 min with its antibody and then added the mixture to T cells.
(xix) Western blotting. Cells were stimulated for 20 min with anti-CD3 and anti-CD28 antibodies in the presence or absence of dopamine or SKF-38393. Cell lysates were prepared using RIPA lysis buffer (50 mM Tris, pH 8; 0.1% SDS; 0.5% deoxycholate; 1% NP40; 500 mM NaCl; 10 mM MgCl2) and were then kept on ice for 10 min before being vortexed and centrifuged. Supernatants were collected and 5× sample buffer (containing 25 mM Tris pH 6.8, 2% sodium dodecyl sulfate (SDS), 10% glycerol, 0.1% bromophenol blue, 0.5 M β-mercaptoethanol) was added prior to boiling. Cell extracts were separated by SDS-PAGE (10% polyacrylamide), and blotted onto nitrocellulose. Activated ERK1/2 was detected by probing blots with a 1:30,000 dilution of monoclonal antibody. Total ERK protein was detected by using a 1:10,000 dilution of a polyclonal rabbit antibody. The blots were developed by horseradish peroxidase-conjugated anti-mouse or anti-rabbit Fab and ECL (Amersham). Signals were quantified using NIH Image 1.62.
Treg were activated for 20 min in the presence or absence of dopamine (10^−5 M), and were then subjected to intracellular phosphoprotein staining (Perez and Nolan 2002) and analyzed by flow cytometry. […] As a measure of the background nonspecific staining of the phosphorylated ERK we used a specific peptide of phospho-ERK, which competes for binding of the antibody. The intracellular staining procedure for phospho-ERK detection by FACS was validated by the use of Teff incubated with 20 μM phorbol 12-myristate 13-acetate (PMA), known to stimulate the activity of protein kinase C (PKC) (data not shown).

NCCc1ccc(O)c(O)c1 [dopamine, 3,4-dihydroxyphenethylamine]
Foxp3 expression in Treg (Foxp3 expression in Treg): no significant change | Expression of CCR-4 in Treg (CCR-4 mRNA in Treg): decreased | Viable neurons in retina (mean±SD) [1]: 1110±56 /mm^2 | CTLA-4 expression on Treg (CTLA-4 on Treg): slightly but consistently decreased | Transcripts encoding TGF-β1 in Treg [2]: decreased | Increase in neuronal survival relative to PBS-treated glutamate-injected controls ([3]; Balb/c, single i.p. injection, dopamine 0.4 mg/kg, SKF-38393 3.3 mg/kg): 18±2.5% | Changes in neuronal survival in treated relative to untreated mice (mean±SEM) ([3]; Wild type mice, systemic injection immediately after glutamate intoxication): 18 ± 2.5*** percentage | Increase of D5-R transcripts in Teff [4]: 10 fold | Number of D5-R transcripts in Treg [4]: unchanged | Number of D1-R transcripts in Treg or Teff [5]: did not significantly alter | IL-2 level secreted by Teff [6]: not affected | Production of IL-2 by Treg [6]: not detected | Migration pattern of mixed T cell population towards SDF-1 [7]: did not alter this pattern | Phosphorylated ERK in activated Treg, flow cytometry ([8]; 10^−5 M, activation 20 min): Significantly less phosphorylated ERK | Phospho-ERK1/2 levels in Teff, Western blot ([8]; activation 20 min): did not cause a significant change | Phospho-ERK1/2 in activated Treg, Western blot ([8]; activation with anti-CD3 and anti-CD28 for 20 min): down-regulated
